Test results taken from patent US8916551B2, “Heterocyclic compound and use thereof” (Takeda Pharmaceutical Company Limited, priority 2010, dated 2014).

Molecular target: T1, AMPA receptor (human GluR1 flip/stargazin expressed in CHO-K1 cells) (Homo sapiens, UniProt P42261)
T1 construct: expressed in transfected cells; host or cells: CHO-K1
Test: AMPA receptor function enhancing activity using calcium influx as index
Type: cell-based
Conditions: test compound 30 μM with 3 mM glutamic acid, change in fluorescence level in 3 min, 100% = 3 mM glutamic acid + 300 μM cyclothiazide, 0% = 3 mM glutamic acid only
Text: Human GluR1 flip cDNA was amplified by PCR using forward primer […] (SEQ ID NO: 1) and reverse primer […] (SEQ ID NO: 2) artificially synthesized using human brain-derived cDNA (BD Bio science) as a template. The amplified product was digested with restriction enzymes EcoRI, NotI (TAKARA SHUZO CO. LTD.), and incorporated into the same site of pcDNA3.1(+) (Invitrogen) to construct pcDNA3.1(+)/human GluR1 flip gene. Human stargazin cDNA was amplified by PCR using forward primer […] (SEQ ID NO: 3) and reverse primer […] (SEQ ID NO: 4) artificially synthesized using human hippocampus cDNA as a template. The amplified product was digested with restriction enzymes XhoI, BamHI (TAKARA SHUZO CO. LTD.), and incorporated into the same site of pcDNA3.1(−) (Invitrogen) to construct pcDNA3.1 Zeo(−)/human stargazin gene.
CHO-K1 cells passaged in a culture medium (Ham's F12 medium (Invitrogen) added with 10% inactivated fetal bovine serum (Morgate) and penicillin, streptomycin (Invitrogen)) were detached with 0.05% trypsin, 0.53 mM EDTA (Invitrogen) diluted with D-PBS(−). The detached cells were suspended in a culture medium, and recovered by a centrifugation operation at 1,000 rpm. The recovered cells were suspended again in D-PBS(−), and added to a 0.4 cm electroporation cuvette (BioRad). pcDNA3.1(+)/human GluR1 flip gene (5 μg) and pcDNA3.1 Zeo(−)/human stargazin gene (15 μg) were added, and the mixture was introduced into CHO-K1 cells using Gene Pulser II (BioRad) under the conditions of 950 μFd, […]. The introduced cells were cultured overnight in a culture medium and, the next day, plated in a 96 well plate at 250 cells/well using a selection medium (culture medium added with Zeocin (Invitrogen) to 250 μg/mL). Clones showing drug resistance were selected, and GluR1 flip/stargazin expressing clones were selected by an assay method using calcium influx as an index as shown below.
CHO-K1/GluR1 flip/stargazin expressing cells were plated on a 96 well black transparent bottom plate (Costar) at 2×10^4 cells/well, and cultured in a 37° C., CO2 incubator (SANYO Electric Co., Ltd.) for 2 days. The medium in the cell plate was removed, and assay buffer A (D-MEM (Invitrogen), 0.1% BSA (Serogical Protein), 20 mM HEPES (Invitrogen)) was added at 50 μL/well. A calcium indicator (Calcium 4 Assay Kit, Invitrogen) added with 2.5 mM probenecid (Invitrogen) was added at 50 μL/well and the well was left standing in 37° C., CO2 incubator for 1 hr. The cell plate was set in CellLux (PerkinElmer), a mixture (50 μL) of 9 mM glutamic acid diluted with assay buffer B (HBSS (Invitrogen), 0.1% BSA, 20 mM HEPES) (final concentration 3 mM) and a test compound (test compound concentration 30 μM) was added, and the amount of change in fluorescence level in 3 min was measured. In the definition here, the amount of change in fluorescence level of well added with glutamic acid at final concentration 3 mM and 300 μM cyclothiazide (TOCRIS) is 100%, the amount of change in fluorescence level of well added only with glutamic acid at final concentration 3 mM is 0%, and the compound activity was calculated according to the following formula. activity(%)=(X−C)/(T−C)×100 T: amount of change in fluorescence level of well added with glutamic acid at final concentration 3 mM and 300 μM cyclothiazide C: amount of change in fluorescence level of well added only with glutamic acid at final concentration 3 mM X: amount of change in fluorescence level of well added with test compound

T1 sequence (P42261 19-906 isoform P42261-2 limits assumed): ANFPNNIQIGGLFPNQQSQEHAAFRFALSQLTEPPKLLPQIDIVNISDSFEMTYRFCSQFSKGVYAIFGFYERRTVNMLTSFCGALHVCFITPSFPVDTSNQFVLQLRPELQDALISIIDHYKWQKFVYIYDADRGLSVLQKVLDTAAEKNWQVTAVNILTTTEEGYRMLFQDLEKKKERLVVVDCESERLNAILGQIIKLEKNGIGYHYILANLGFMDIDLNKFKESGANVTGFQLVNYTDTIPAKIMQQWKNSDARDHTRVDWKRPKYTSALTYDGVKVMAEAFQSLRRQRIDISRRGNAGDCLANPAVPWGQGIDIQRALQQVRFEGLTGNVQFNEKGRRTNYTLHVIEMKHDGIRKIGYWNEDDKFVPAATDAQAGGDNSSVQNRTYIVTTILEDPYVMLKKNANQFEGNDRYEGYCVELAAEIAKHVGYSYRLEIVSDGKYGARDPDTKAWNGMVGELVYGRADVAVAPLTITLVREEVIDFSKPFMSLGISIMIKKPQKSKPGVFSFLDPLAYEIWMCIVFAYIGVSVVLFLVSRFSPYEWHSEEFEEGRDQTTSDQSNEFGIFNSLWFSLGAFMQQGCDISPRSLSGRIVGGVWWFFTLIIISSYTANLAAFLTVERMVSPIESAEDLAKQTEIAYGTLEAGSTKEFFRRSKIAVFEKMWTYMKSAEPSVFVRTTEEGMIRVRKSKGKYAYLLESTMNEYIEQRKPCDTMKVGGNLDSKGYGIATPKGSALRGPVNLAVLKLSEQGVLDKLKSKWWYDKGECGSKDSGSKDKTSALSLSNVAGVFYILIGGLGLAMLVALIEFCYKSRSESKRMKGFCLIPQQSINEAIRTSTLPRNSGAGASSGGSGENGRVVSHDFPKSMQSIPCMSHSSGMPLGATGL
T1 sequence (Q9Y698 whole entry partner): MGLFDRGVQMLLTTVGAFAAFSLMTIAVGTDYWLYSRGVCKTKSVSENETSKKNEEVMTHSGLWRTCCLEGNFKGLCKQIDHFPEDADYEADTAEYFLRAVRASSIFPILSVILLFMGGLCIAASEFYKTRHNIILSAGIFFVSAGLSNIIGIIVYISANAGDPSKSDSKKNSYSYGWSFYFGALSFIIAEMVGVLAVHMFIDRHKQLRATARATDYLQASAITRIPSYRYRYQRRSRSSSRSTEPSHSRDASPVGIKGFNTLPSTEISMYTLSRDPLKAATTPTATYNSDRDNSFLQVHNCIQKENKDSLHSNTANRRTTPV

CC1CC(c2ccc(Oc3cccc(C(C)(F)F)c3)cc2)C2=NS(=O)(=O)CCN2C1 (racemic) [Example 172, 9-{4-[3-(1,1-difluoroethyl)phenoxy]phenyl}-7-methyl-3,4,6,7,8,9-hexahydropyrido[2,1-c][1,2,4]thiadiazine 2,2-dioxide] was tested. Which “activity (%)” value did it give?
Its value is 74%.

With CC1CC(c2ccc(Oc3cccc(C(C)(F)F)c3)cc2)C2=NS(=O)(=O)CCN2C1 (racemic) [Example 173, 9-{4-[3-(1,1-difluoroethyl)phenoxy]phenyl}-7-methyl-3,4,6,7,8,9-hexahydropyrido[2,1-c][1,2,4]thiadiazine 2,2-dioxide] as the compound, how does the “activity (%)” value read?
The value was 68%.

Same assay, conditions: test compound 30 μM with glutamic acid final 3 mM, change in fluorescence in 3 min, 100% = 3 mM glutamic acid + 300 μM cyclothiazide, 0% = 3 mM glutamic acid only

For CCC(C)c1ccc(NC(=O)C2=NC=CN3CCS(=O)(=O)N=C23)cc1 (stereo not drawn) [Example 1, N-[4-(1-methylpropyl)phenyl]-3,4-dihydropyrazino[2,1-c][1,2,4]thiadiazine-9-carboxamide 2,2-dioxide], which “activity (%)” value is on record?
The value was 66%.

O=C(Nc1ccc(C2CC2)cc1)C1=CC=CN2CCS(=O)(=O)N=C12 [Example 4, N-(4-cyclopropylphenyl)-3,4-dihydropyrido[2,1-c][1,2,4]thiadiazine-9-carboxamide 2,2-dioxide] was tested. Which “activity (%)” value did it give?
Its value is 85%.

Which “activity (%)” value does the source give for Cc1nc2cc(OC3=CC=CN4CCS(=O)(=O)N=C34)ccc2s1 [Example 24, 9-[(2-methyl-1,3-benzothiazol-5-yl)oxy]-3,4-dihydropyrido[2,1-c][1,2,4]thiadiazine 2,2-dioxide] here?
Its value is 78%.

For CC(C)c1ccc(CCC2=CC=CN3CCS(=O)(=O)N=C23)cc1 [Example 25, 9-{2-[4-(1-methylethyl)phenyl]ethyl}-3,4-dihydropyrido[2,1-c][1,2,4]thiadiazine 2,2-dioxide], which “activity (%)” value is on record?
The value was 98%.

Which “activity (%)” value does the source give for CC(C)c1ccc(C(=O)NC2=CC=CN3CCS(=O)(=O)N=C23)cc1 [Example 37, N-(2,2-dioxido-3,4-dihydropyrido[2,1-c][1,2,4]thiadiazin-9-yl)-4-(1-methylethyl)benzamide] here?
Its value is 95%.

Which “activity (%)” value does the source give for O=S1(=O)CCN2CCCC(c3ccc(Oc4ccccc4)cc3)C2=N1 (stereo not drawn) [Example 43, 9-(4-phenoxyphenyl)-3,4,6,7,8,9-hexahydropyrido[2,1-c][1,2,4]thiadiazine 2,2-dioxide] here?
Its value is 81%.

For O=S1(=O)CCN2C=CC=C(c3ccc4ccccc4c3)C2=N1 [Example 46, 9-naphthalen-2-yl-3,4-dihydropyrido[2,1-c][1,2,4]thiadiazine 2,2-dioxide], which “activity (%)” value is on record?
The value was 80%.

How did the “activity (%)” value turn out when CC(C)c1ccc(/C=C/C2=CC=CN3CCS(=O)(=O)N=C23)cc1 [Example 51, 9-{(E)-2-[4-(1-methylethyl)phenyl]ethenyl}-3,4-dihydropyrido[2,1-c][1,2,4]thiadiazine 2,2-dioxide] was run?
The value was 87%.

How did the “activity (%)” value turn out when CC(C)c1ccc(COC2=CC=CN3CCS(=O)(=O)N=C23)cc1 [Example 52, 9-{[4-(1-methylethyl)benzyl]oxy}-3,4-dihydropyrido[2,1-c][1,2,4]thiadiazine 2,2-dioxide] was run?
Its value is 67%.

With O=S1(=O)CCN2CCCC(c3ccc(-c4ccccc4)s3)C2=N1 (stereo not drawn) [Example 57, 9-(5-phenylthiophen-2-yl)-3,4,6,7,8,9-hexahydropyrido[2,1-c][1,2,4]thiadiazine 2,2-dioxide] as the compound, how does the “activity (%)” value read?
Its value is 86%.

For COc1ccc2ccc(OC3CCCN4CCS(=O)(=O)N=C34)cc2c1 (stereo not drawn) [Example 60, 9-[(7-methoxynaphthalen-2-yl)oxy]-3,4,6,7,8,9-hexahydropyrido[2,1-c][1,2,4]thiadiazine 2,2-dioxide], which “activity (%)” value is on record?
The value was 63%.

How did the “activity (%)” value turn out when O=S1(=O)CCN2C=CC=C(c3ccc(OC4CC4)cc3)C2=N1 [Example 70, 9-[4-(cyclopropyloxy)phenyl]-3,4-dihydropyrido[2,1-c][1,2,4]thiadiazine 2,2-dioxide] was run?
The value was 86%.

For CCC(CC)Oc1ccc(C2=CC=CN3CCS(=O)(=O)N=C23)cc1 [Example 72, 9-[4-(1-ethylpropoxy)phenyl]-3,4-dihydropyrido[2,1-c][1,2,4]thiadiazine 2,2-dioxide], which “activity (%)” value is on record?
The value was 80%.

Which “activity (%)” value does the source give for O=S1(=O)CCN2C=CC=C(c3ccc(N4CCCC4)cc3)C2=N1 [Example 80, 9-(4-pyrrolidin-1-ylphenyl)-3,4-dihydropyrido[2,1-c][1,2,4]thiadiazine 2,2-dioxide] here?
The value was 88%.

With O=S1(=O)CCN2C=CC=C(c3ccc(OCc4cccc(F)c4)cc3)C2=N1 [Example 82, 9-{4-[(3-fluorobenzyl)oxy]phenyl}-3,4-dihydropyrido[2,1-c][1,2,4]thiadiazine 2,2-dioxide] as the compound, how does the “activity (%)” value read?
Its value is 65%.

With O=S1(=O)CCN2CCCC(c3ccc(OCc4cccc(F)c4)cc3)C2=N1 (stereo not drawn) [Example 83, 9-{4-[(3-fluorobenzyl)oxy]phenyl}-3,4,6,7,8,9-hexahydropyrido[2,1-c][1,2,4]thiadiazine 2,2-dioxide] as the compound, how does the “activity (%)” value read?
Its value is 57%.

O=S1(=O)CCN2C=CC=C(c3ccc(Oc4cccc(Cl)c4)cc3)C2=N1 [Example 85, 9-[4-(3-chlorophenoxy)phenyl]-3,4-dihydropyrido[2,1-c][1,2,4]thiadiazine 2,2-dioxide] was tested. Which “activity (%)” value did it give?
Its value is 84%.

Which “activity (%)” value does the source give for O=S1(=O)CCN2CCCC(c3ccc(Oc4ccccc4C(F)(F)F)cc3)C2=N1 (stereo not drawn) [Example 86, 9-{4-[2-(trifluoromethyl)phenoxy]phenyl}-3,4,6,7,8,9-hexahydropyrido[2,1-c][1,2,4]thiadiazine 2,2-dioxide] here?
The value was 67%.

How did the “activity (%)” value turn out when O=S1(=O)CCN2C=CC=C(c3ccc(O)cc3)C2=N1 [Example 87, 4-(2,2-dioxido-3,4-dihydropyrido[2,1-c][1,2,4]thiadiazin-9-yl)phenol] was run?
The value was 51%.

Which “activity (%)” value does the source give for O=S1(=O)CCN2C=CC=C(c3ccc(OC4CCCCCC4)cc3)C2=N1 [Example 88, 9-[4-(cycloheptyloxy)phenyl]-3,4-dihydropyrido[2,1-c][1,2,4]thiadiazine 2,2-dioxide] here?
The value was 75%.

With O=S1(=O)CCN2C=C(F)C=C(c3ccc(OC4CCCCC4)cc3)C2=N1 [Example 89, 9-[4-(cyclohexyloxy)phenyl]-7-fluoro-3,4-dihydropyrido[2,1-c][1,2,4]thiadiazine 2,2-dioxide] as the compound, how does the “activity (%)” value read?
Its value is 85%.

For COc1cccc(Oc2ccc(C3=CC=CN4CCS(=O)(=O)N=C34)cc2)c1 [Example 90, 9-[4-(3-methoxyphenoxy)phenyl]-3,4-dihydropyrido[2,1-c][1,2,4]thiadiazine 2,2-dioxide], which “activity (%)” value is on record?
The value was 78%.

Which “activity (%)” value does the source give for O=S1(=O)CCN2C=CC=C(c3ccc(OC4CCC4)cc3)C2=N1 [Example 91, 9-[4-(cyclobutyloxy)phenyl]-3,4-dihydropyrido[2,1-c][1,2,4]thiadiazine 2,2-dioxide] here?
Its value is 81%.

O=S1(=O)CCN2C=CN=C(c3ccc(OC4CCCCC4)nc3)C2=N1 [Example 94, 9-[6-(cyclohexyloxy)pyridin-3-yl]-3,4-dihydropyrazino[2,1-c][1,2,4]thiadiazine 2,2-dioxide] was tested. Which “activity (%)” value did it give?
The value was 71%.

For O=S1(=O)CCN2CCCC(c3ccc(-c4ccccc4)c(F)c3)C2=N1 (stereo not drawn) [Example 96, 9-(2-fluorobiphenyl-4-yl)-3,4,6,7,8,9-hexahydropyrido[2,1-c][1,2,4]thiadiazine 2,2-dioxide], which “activity (%)” value is on record?
The value was 74%.
